ChEMBL document CHEMBL3885861, “Open TG-GATES”

Organism: Rattus norvegicus
Experiment: Open TG-GATES - Regimen: Single
Type: toxicity, organism-based, Sprague-Dawley
Design: regimen Single, gender Male, age 6 weeks
Settings: in vivo, po, route gavage; for APTT / Bas / Eos / Fbg / Hb / Ht / Lym / MCH / MCHC / MCV / Mono / Neu / PT / Plat / RBC / Ret / WBC: tissue Blood; for KIDNEY_L / KIDNEY_R / KIDNEY_TOTAL: tissue Kidney; for LIVER: tissue Liver; for A/G / ALP / ALT / AST / BUN / CRE / Ca / Cl / DBIL / GLC / IP / LDH / Na / PL / RALB / TBIL / TC / TG / TP / gamma-GTP: tissue Plasma
[1] = 0 mg/kg, 3 h, dose level Control
[2] = 0 mg/kg, 6 h, dose level Control
[3] = 0 mg/kg, 9 h, dose level Control
[4] = 0 mg/kg, 24 h, dose level Control
[5] = 100 mg/kg, 24 h, dose level Low

## NC(N)=Nc1nc(CSCCC(N)=NS(N)(=O)=O)cs1 [FAMOTIDINE]
[1]
  TERMINAL_BW: 217.3 g
  APTT: 20.1 s
  Bas: 0%
  Eos: 1%
  Fbg: 209.8 mg/dL
  Hb: 13.2 g/dL
  Ht: 37.2%
  Lym: 64.8%
  MCH: 22.3 pg
  MCHC: 35.5%
  MCV: 62.6 fL
  Mono: 3.8%
  Neu: 26.8%
  PT: 12.5 s
  Plat: 110.5 x10_4/uL
  RBC: 593.6 x10_4/ul
  Ret: 8.2%
  WBC: 81.2 x10_2/uL
  KIDNEY_L: 1 g
  KIDNEY_R: 1 g
  KIDNEY_TOTAL: 1.9 g
  LIVER: 10.4 g
  A/G: 1.7
  ALP: 809.6 IU/L
  ALT: 39 IU/L
  AST: 71 IU/L
  BUN: 10.8 mg/dL
  CRE: 0.4 mg/dL
  Ca: 10.8 mg/dL
  Cl: 103.2 meq/L
  DBIL: 0.078 mg/dL
  GLC: 197.2 mg/dL
  IP: 9.1 mg/dL
  LDH: 196.4 IU/L
  Na: 140.8 meq/L
  PL: 139 mg/dL
  RALB: 3.4 g/dL
  TBIL: 0.1 mg/dL
  TC: 77.4 mg/dL
  TG: 55.8 mg/dL
  TP: 5.4 g/dL
  gamma-GTP: 1.4 IU/L
[2]
  TERMINAL_BW: 212.9 g
  APTT: 20 s
  Bas: 0%
  Eos: 0.8%
  Fbg: 218.6 mg/dL
  Hb: 13.4 g/dL
  Ht: 37.6%
  Lym: 79.4%
  MCH: 22 pg
  MCHC: 35.7%
  MCV: 61.7 fL
  Mono: 2.4%
  Neu: 15.2%
  PT: 12.4 s
  Plat: 119.6 x10_4/uL
  RBC: 610.2 x10_4/ul
  Ret: 6.9%
  WBC: 94.2 x10_2/uL
  KIDNEY_L: 1 g
  KIDNEY_R: 1 g
  KIDNEY_TOTAL: 2 g
  LIVER: 9.3 g
  A/G: 1.5
  ALP: 928.8 IU/L
  ALT: 32.6 IU/L
  AST: 64.2 IU/L
  BUN: 9.2 mg/dL
  CRE: 0.4 mg/dL
  Ca: 10.7 mg/dL
  Cl: 102.6 meq/L
  DBIL: 0.068 mg/dL
  GLC: 193.8 mg/dL
  IP: 9 mg/dL
  LDH: 193.6 IU/L
  Na: 140 meq/L
  PL: 142.8 mg/dL
  RALB: 3.3 g/dL
  TBIL: 0.1 mg/dL
  TC: 80.6 mg/dL
  TG: 60 mg/dL
  TP: 5.5 g/dL
  gamma-GTP: 1 IU/L
[3]
  TERMINAL_BW: 209.9 g
  APTT: 19.9 s
  Bas: 0%
  Eos: 1%
  Fbg: 228.2 mg/dL
  Hb: 13.3 g/dL
  Ht: 36.7%
  Lym: 65.4%
  MCH: 22.9 pg
  MCHC: 36.2%
  MCV: 63.3 fL
  Mono: 2.4%
  Neu: 29%
  PT: 12.7 s
  Plat: 118.2 x10_4/uL
  RBC: 580.8 x10_4/ul
  Ret: 7.5%
  WBC: 106.4 x10_2/uL
  KIDNEY_L: 1 g
  KIDNEY_R: 1 g
  KIDNEY_TOTAL: 2 g
  LIVER: 9.1 g
  A/G: 1.5
  ALP: 883.2 IU/L
  ALT: 28.4 IU/L
  AST: 56.8 IU/L
  BUN: 8.8 mg/dL
  CRE: 0.3 mg/dL
  Ca: 10.4 mg/dL
  Cl: 102.8 meq/L
  DBIL: 0.056 mg/dL
  GLC: 205.2 mg/dL
  IP: 9.4 mg/dL
  LDH: 138.6 IU/L
  Na: 140 meq/L
  PL: 133.8 mg/dL
  RALB: 3.2 g/dL
  TBIL: 0.1 mg/dL
  TC: 70.6 mg/dL
  TG: 46.6 mg/dL
  TP: 5.4 g/dL
  gamma-GTP: 0.8 IU/L
[4]
  TERMINAL_BW: 226.6 g
  APTT: 19.6 s
  Bas: 0%
  Eos: 1%
  Fbg: 232.4 mg/dL
  Hb: 13.3 g/dL
  Ht: 37.3%
  Lym: 78.4%
  MCH: 22.5 pg
  MCHC: 35.7%
  MCV: 63.2 fL
  Mono: 2.8%
  Neu: 15.8%
  PT: 11.9 s
  Plat: 126.9 x10_4/uL
  RBC: 590 x10_4/ul
  Ret: 6.6%
  WBC: 84.4 x10_2/uL
  KIDNEY_L: 1.1 g
  KIDNEY_R: 1.1 g
  KIDNEY_TOTAL: 2.1 g
  LIVER: 11 g
  A/G: 1.5
  ALP: 1002.2 IU/L
  ALT: 34.2 IU/L
  AST: 65.4 IU/L
  BUN: 13.4 mg/dL
  CRE: 0.4 mg/dL
  Ca: 10.7 mg/dL
  Cl: 102.6 meq/L
  DBIL: 0.088 mg/dL
  GLC: 186.4 mg/dL
  IP: 7.3 mg/dL
  LDH: 203.2 IU/L
  Na: 139.4 meq/L
  PL: 147.2 mg/dL
  RALB: 3.4 g/dL
  TBIL: 0.1 mg/dL
  TC: 81.8 mg/dL
  TG: 85.6 mg/dL
  TP: 5.7 g/dL
  gamma-GTP: 1 IU/L
100 mg/kg, 3 h, dose level Low
  TERMINAL_BW: 213.7 g
  APTT: 19.6 s
  Bas: 0%
  Eos: 0.6%
  Fbg: 217.4 mg/dL
  Hb: 13.5 g/dL
  Ht: 38.2%
  Lym: 71.2%
  MCH: 22.6 pg
  MCHC: 35.3%
  MCV: 64.1 fL
  Mono: 2.4%
  Neu: 24%
  PT: 12.3 s
  Plat: 112.1 x10_4/uL
  RBC: 596.2 x10_4/ul
  Ret: 7.2%
  WBC: 80 x10_2/uL
  KIDNEY_L: 1 g
  KIDNEY_R: 1 g
  KIDNEY_TOTAL: 1.9 g
  LIVER: 10.3 g
  A/G: 1.7
  ALP: 1057.6 IU/L
  ALT: 38 IU/L
  AST: 64.8 IU/L
  BUN: 9.4 mg/dL
  CRE: 0.4 mg/dL
  Ca: 10.5 mg/dL
  Cl: 104.2 meq/L
  DBIL: 0.076 mg/dL
  GLC: 196.2 mg/dL
  IP: 9.2 mg/dL
  LDH: 186.2 IU/L
  Na: 141 meq/L
  PL: 144.6 mg/dL
  RALB: 3.4 g/dL
  TBIL: 0.1 mg/dL
  TC: 79 mg/dL
  TG: 56.6 mg/dL
  TP: 5.5 g/dL
  gamma-GTP: 1 IU/L
100 mg/kg, 6 h, dose level Low
  TERMINAL_BW: 212.2 g
  APTT: 18.5 s
  Bas: 0%
  Eos: 0.8%
  Fbg: 222.2 mg/dL
  Hb: 13.4 g/dL
  Ht: 37.5%
  Lym: 71.4%
  MCH: 22.2 pg
  MCHC: 35.7%
  MCV: 62.3 fL
  Mono: 2.6%
  Neu: 22.8%
  PT: 12.4 s
  Plat: 120.7 x10_4/uL
  RBC: 602.6 x10_4/ul
  Ret: 6.8%
  WBC: 98.6 x10_2/uL
  KIDNEY_L: 1 g
  KIDNEY_R: 0.9 g
  KIDNEY_TOTAL: 1.9 g
  LIVER: 9.4 g
  A/G: 1.5
  ALP: 808.4 IU/L
  ALT: 34.2 IU/L
  AST: 68 IU/L
  BUN: 9.4 mg/dL
  CRE: 0.4 mg/dL
  Ca: 10.7 mg/dL
  Cl: 103.2 meq/L
  DBIL: 0.068 mg/dL
  GLC: 189.4 mg/dL
  IP: 9 mg/dL
  LDH: 202 IU/L
  Na: 140.4 meq/L
  PL: 141.2 mg/dL
  RALB: 3.2 g/dL
  TBIL: 0.1 mg/dL
  TC: 82 mg/dL
  TG: 60 mg/dL
  TP: 5.4 g/dL
  gamma-GTP: 1.4 IU/L
100 mg/kg, 9 h, dose level Low
  TERMINAL_BW: 209.4 g
  APTT: 18.3 s
  Bas: 0%
  Eos: 0.8%
  Fbg: 232.2 mg/dL
  Hb: 13.4 g/dL
  Ht: 37.1%
  Lym: 74.2%
  MCH: 22 pg
  MCHC: 36%
  MCV: 61.2 fL
  Mono: 2.2%
  Neu: 19.2%
  PT: 12.1 s
  Plat: 116.7 x10_4/uL
  RBC: 606.6 x10_4/ul
  Ret: 7%
  WBC: 87.3 x10_2/uL
  KIDNEY_L: 0.9 g
  KIDNEY_R: 1 g
  KIDNEY_TOTAL: 1.9 g
  LIVER: 9 g
  A/G: 1.6
  ALP: 851.2 IU/L
  ALT: 31.2 IU/L
  AST: 61.2 IU/L
  BUN: 10.2 mg/dL
  CRE: 0.4 mg/dL
  Ca: 10.5 mg/dL
  Cl: 103.6 meq/L
  DBIL: 0.064 mg/dL
  GLC: 200.8 mg/dL
  IP: 8.8 mg/dL
  LDH: 135.4 IU/L
  Na: 141 meq/L
  PL: 140.8 mg/dL
  RALB: 3.4 g/dL
  TBIL: 0.1 mg/dL
  TC: 80.6 mg/dL
  TG: 62.4 mg/dL
  TP: 5.5 g/dL
  gamma-GTP: 0.8 IU/L
[5]
  TERMINAL_BW: 225.3 g
  APTT: 19.8 s
  Bas: 0%
  Eos: 1%
  Fbg: 229.6 mg/dL
  Hb: 13.3 g/dL
  Ht: 37.2%
  Lym: 78.2%
  MCH: 22.3 pg
  MCHC: 35.8%
  MCV: 62.2 fL
  Mono: 2.2%
  Neu: 16.2%
  PT: 12 s
  Plat: 121.8 x10_4/uL
  RBC: 599.4 x10_4/ul
  Ret: 6.1%
  WBC: 86.8 x10_2/uL
  KIDNEY_L: 1 g
  KIDNEY_R: 1 g
  KIDNEY_TOTAL: 2 g
  LIVER: 10.8 g
  A/G: 1.4
  ALP: 990 IU/L
  ALT: 40.6 IU/L
  AST: 68.2 IU/L
  BUN: 14.2 mg/dL
  CRE: 0.4 mg/dL
  Ca: 10.6 mg/dL
  Cl: 104.2 meq/L
  DBIL: 0.076 mg/dL
  GLC: 199.4 mg/dL
  IP: 7.7 mg/dL
  LDH: 198.4 IU/L
  Na: 140.6 meq/L
  PL: 145.8 mg/dL
  RALB: 3.3 g/dL
  TBIL: 0.1 mg/dL
  TC: 74.2 mg/dL
  TG: 82.6 mg/dL
  TP: 5.6 g/dL
  gamma-GTP: 0.6 IU/L
